How the values were obtained:
isoprenylation enzymes = details: cited from earlier work
wound healing process = experiment: Healing after scarification of the skin in hairless Skh-1 mice; details: 10 mg/kg/day topical in maize oil, 8 days
Description: 6 female mice hairless Skh-1 with an average weight of 20-25 g were used.
Each mouse was submitted to a scarification of the skin on each flank.
The daily topical treatment begun 1 hour before the scarification and was continued 8 days after the scarification.
Daily observations and photographs were performed in order to follow the healing process.

skin inflammation = experiment: Mouse chronic skin inflammation model (TPA); type: in vivo; details: 10 mg/kg/day topical, 10 days
Description: 100 μl of a TPA solution were applied daily on the dorsal surfaces of mice during seven days (from J4 to J10) at a concentration of 0.2 mg/ml.
The daily topical treatment begun 3 days before the induction of skin inflammation (=Ji) and was continued 7 days after the induction of skin inflammation (=J10).
From J4 to J10, the assayed products were applied 30 minutes before the application of TPA on the same skin area.
The mice were anaesthetized by intraperitoneal injection of a mixture of Ketamine (Ketamine 1000, Virbac, Carros, France) and Xylazine (Rompun 2%, Bayer Healthcare, Kiel, Allemagne). (2/3-1/3 vol/vol) at a dosis of 8 ml/kg. Blood (1 ml) was punctured intracardiacally after the last treatment. Blood samples were stored at +4° C. during 20 to 30 minutes then centrifuged at 1500 g for 15 minutes. Serums were removed, freezed at −20° C. and stored at −80° C. until pro-inflammatory cytokines dosage.
Dorsal skin samples were removed, fixed and stored in formaldehyde (Rotr-Histofix 4%, Carl Roth, Karlsruhe, Allemagne) until histopathological analysis.
Kruskal-Wallis test followed possibly by the Mann-Whitney test was used to compare the different studied variables of the treated groups by comparison with the groups “Control” and “TPA+Control”. Significativity threshold was settled at P<0.05.

[1] = at doses which may have clinical activity; cited from earlier work
colon inflammation = experiment: Preventive anti-inflammatory effects in a rat colitis model (TNBS); type: in vivo; details: for average lengths of the colons vs group TNBS/Control / microscopic score of the colons: 6 days after induction; for average macroscopic score of the colons (Mean ± ESM): colons removed 6 days after induction, n = 6; for rats average weights vs group TNBS/Control: J6
Description: Average macroscopic and microscopic scores of the colons sampled 6 days after the induction of colon inflammation were compared.
Colon inflammation was induced by a unique rectal administration of a 2,4,6-trinitrobenzen-sulfonic acid solution (TNBS, Fluka, France). TNBS was dissolved in 40° alcohol at a concentration of 50 mg/ml. Animals were anaesthetised intraperitoneally by 2 mg/kg of Calmivet (Vetoquinol, Lure, France) and 50 mg/kg of Ketamine (Ketamine 1000, Virbac, Carros, France). 0.4 ml of the TNBS solution was administered rectally and the rats were maintained during at least 30 minutes to avoid the releasing of the TNBS.
Kruskal-Wallis test followed possibly by the Mann-Whitney test was used to compare the different studied variables of the treated groups by comparison with the groups “Control” and “TNBS/Control”. Significativity threshold was settled at P<0.05.

[2] = test system: repaired extensor tendon, wound contraction, epithelialization; details: in vivo; cited from earlier work

S-limonene [reference compound]
inhibition of the isoprenylation enzymes (isoprenylation enzymes): weak inhibitors

C=C(C)[C@@H]1CC=C(CO)CC1 [Perillyl alcohol, (S)-4-Isopropenyl-1-cyclohexenylmethanol]
IC50 values, isoprenylation enzymes (isoprenylation enzymes): low mM range
wound healing process in comparison with corn oil alone (wound healing process): much better results
wound healing process in comparison with limonene (wound healing process): better results
average macroscopic score of skin inflammation vs group TPA+Limonene (skin inflammation): significantly lower
average macroscopic scores of skin inflammation vs group TPA+control (skin inflammation): significantly lower
average microscopic scores of skin inflammation vs group TPA+control (skin inflammation): significantly lower
average serum level of IL-1β vs TPA+control group (skin inflammation): tendency to be significantly lower
average serum level of IL-6 vs TPA+control group (skin inflammation): significantly lower
average serum level of TNF-α vs TPA+control group (skin inflammation): significantly lower
histopathological analysis of the skin samples (skin inflammation): skins were little inflammatory; showed non-specific inflammatory skin lesions without epidermis ulceration and with an inflammatory rarely marked
Average serum levels of IL-1β (Mean ± ESM) (skin inflammation; TPA-treated mice): 5.3 ± 1.7 pg/mL
Average serum levels of IL-6 (Mean ± ESM) (skin inflammation; TPA-treated mice): 13.0 ± 3.8 pg/mL
Average serum levels of TNF-α (Mean ± ESM) (skin inflammation; TPA-treated mice): 80.6 ± 24.7 pg/mL

C=C(C)[C@@H]1CC=C(C(=O)O)CC1 [perillic acid, reference compound]
IC50 values, isoprenylation enzymes (isoprenylation enzymes): low mM range

C=C(C)[C@H]1CC=C(C)CC1 [Limonene, (4R)-1-methyl-4-isopropenylcyclohex-1-ene]
tolerance in cancer patients [1]: well tolerated
inhibition of the isoprenylation enzymes (isoprenylation enzymes): weak inhibitors
average macroscopic scores of the colons vs groups TNBS/Control and TNBS/Limonene 100 (colon inflammation; 10 mg/kg daily oral): significantly lower
average lengths of the colons vs group TNBS/Control (colon inflammation; 10 mg/kg daily oral): significantly lower
microscopic score of the colons (colon inflammation; 10 mg/kg daily oral): 2
average macroscopic score of the colons (Mean ± ESM) (colon inflammation; 10 mg/kg daily oral): 6.5 ± 1.3
average lengths of the colons vs group TNBS/Control (colon inflammation; 100 mg/kg daily oral): significantly lower
microscopic score of the colons (colon inflammation; 100 mg/kg daily oral): 4
average macroscopic score of the colons (Mean ± ESM) (colon inflammation; 100 mg/kg daily oral): 10.7 ± 2.7
rats average weights vs group TNBS/Control (colon inflammation; Limonene 10 mg/kg daily oral): not significantly different
rats average weights vs group TNBS/Control (colon inflammation; Limonene 100 mg/kg daily oral): not significantly different
circulating TNF-α level (colon inflammation; at a concentration five times inferior to the concentrations of Ibuprofen): decreased
post-inflammatory tissue repair, compared with ibuprofen (colon inflammation; oral administration, colons sampled 6 days after induction): induced post-inflammatory tissue repair

CC(C)Cc1ccc([C@H](C)C(=O)O)cc1 [Ibuprofen, (S)-(+)-Ibuprofen, reference compound]
breaking strength of the repaired extensor tendon, wound contraction, and epithelialization [2]: reduce
average macroscopic scores of the colons vs groups TNBS/Control and TNBS/Limonene 100 (colon inflammation; 50 mg/kg daily oral): significantly lower
average lengths of the colons vs group TNBS/Control (colon inflammation; 50 mg/kg daily oral): significantly lower
average macroscopic score of the colons (Mean ± ESM) (colon inflammation; 50 mg/kg daily oral): 4.7 ± 2.7
rats average weights vs group TNBS/Control (colon inflammation; Ibuprofen 50 mg/kg daily oral): not significantly different
